Values after ≈ are worked out from the molar mass of the structure shown. Where two headings read alike, the source gives them in different places.
Tests used:
[1] = test system: patients; assay: Naltrexone therapy in approximately 6,000 patients; type: in vivo, human
Protocol: Our experiments in approximately 6,000 patients treated with naltrexone (release rate of between 0.5 to 20 mg/day) or 1 to 100 micrograms per hour, with similar release rates of antagonists, has confirmed improvements in multiple sclerosis in our patients and also in crohn's disease which are both inflammatory conditions. […] These experiments showing blocking of dopamine is why the combination of right hand isomer of naltrexone and flumazenil in the dose range described is the ideal treatment to arrest multiple sclerosis.

[2] = test system: idiopathic hypersomnia patients; assay: Treatment of idiopathic hypersomnia patients with flumazenil; type: in vivo, human
Text: We tested this model of disease again in two idiopathic hypersomnia patients. Both individuals had severe sleep drunkenness for over 18 months (Patient 1) and for over 13 years (Patient 2). We believe this illness to be due to the damage in the balance between an initial insult that had caused hyperpolarisation of cells which made them nonresponsive to benzodiazepine, as the prolonged presence of high levels of endogenous benzodiazepines continues long after the initial insult or disease. The homeostatic mechanisms that balance the delivery of dopamine to their cells responded to the damaged benzodiazepine receptors by maintaining the endogenous benzodiazepines at a high level in order to get some benzodiazepines to their cells. This inadequate dopamine delivered by response to valium was not occurring when we met these patients and so their cells remained unable to conduct currents and also unable to recover from their hyperpolarisation in the absence of dopamine.
[…]. Patient 2 was treated in a similar way.
This is in contrast with an existing patient treated by the Emery Research Group, who indicated a dose of approximately 2 mg per body mass unit per day would be required. For P1, with a BMI of 34 this would equate to 68 mg per day, 17 times what they were given during the infusion.
During the infusion and the two weeks prior, P1 kept a record of sleepiness and mood, upon awaking, mid-awake and pre-sleep on a scale of 0-10. For sleepiness 0 represented an unavoidable need to sleep, while 10 is feeling awake and rested. Similarly for mood, 0 represents rock bottom, while 10 was chirpy, happy and cheerful.

[3] = test system: release of dopamine; conditions: rats; combination of flumazenil and benzodiazepines; cited from earlier work
[4] = test system: patient suffering from Parkinson's disease; assay: Finger tap test (one minute) and L-dopa intake in a Parkinson's disease patient; type: in vivo, human; conditions: for Tapping score: flumazenil 170 micrograms per hour plus 10 mg of valium per day
Protocol: A study was conducted to test the theory that the loss of function of neuronal cells from hyperpolarisation in a patient suffering from Parkinson's disease could be reversed, improved or corrected. […] In addition, the patient was also given 10 mg of valium per day to facilitate the “sick cells” in the substantia niagra region of the brain stem, being able to produce their own dopamine again.
The patient was asked to perform the “finger tap test”, which is an indicator of the extent of Parkinson's disease. Briefly, the patient is asked to tap an index finger as fast as possible for one (1) minute (CNS tap test). The greater the number of taps per minute, the greater the improvement.
The following results were observed over four hours of treatment to the patient.

[5] = test system: patients
[6] = test system: human adult volunteers; assay: Infusion of flumazenil for treatment of benzodiazepine addiction; type: in vivo
[7] = test system: epilepsy patient; assay: Treatment of epilepsy patient with flumazenil; type: in vivo, human; conditions: 170 micrograms per hour, day following treatment
[8] = test system: patients; conditions: intravenous or oral bolus doses as high as 20,000 micrograms; work of others; cited from earlier work
[9] = Solubility of flumazenil; type: physicochemical
[10] = P1, 4 day subcutaneous infusion, 4 mg per day
[11] = P1, post treatment, scale of 0-10, 10 is feeling awake and rested
[12] = P1, post treatment, scale of 0-10, 10 was chirpy, happy and cheerful
[13] = P2, before dose was doubled to 8 mg/day
[14] = release rate of between 0.5 to 20 mg/day or 1 to 100 micrograms per hour

With O=C1CC[C@@]2(O)[C@H]3Cc4ccc(O)c5c4[C@@]2(CCN3CC2CC2)[C@H]1O5 (single isomer, unassigned) [L isomer of naltrexone] the dopamine effects ([1]; human, in vivo) was “reduces dopamine effects”.
With CCOC(=O)c1ncn2c1CN(C)C(=O)c1cc(F)ccc1-2 [flumazenil] the sleep drunkenness ([2]; 4 mg per day, within 3 days, both patients) was “full relief”, the “concentration, memory and attention span” value [2, 10] was “marked improvement” and the “symptoms of IH reported during the infusion” value [2, 10] was “not having experienced any sleep drunkenness, excessive day time sleepiness, heart palpitations or cold hands and feet”. The “Stanford Sleepiness Scale (SSS) score” value ([2]; P1, at completion of flumazenil treatment, 6 out of a possible 8 at the time of treatment) was 3, the “Epworth Sleepiness Scale (ESS) score” value ([2]; P1, at completion of flumazenil treatment, 21 of a possible 24 at the time of treatment) was 4 and the Awaking sleepiness [2, 11] was 6.2 ± 0.8. The Mid-awake sleepiness [2, 11] was 6.8 ± 0.5, the Pre-sleep sleepiness [2, 11] was 5.8 ± 1.7 and the Awaking mood [2, 12] was 8.8 ± 0.4. The Mid-awake mood [2, 12] was 8.8 ± 0.5, the Pre-sleep mood [2, 12] was 8.5 ± 0.6 and the “mental clarity of second patient (P2)” value [2, 13] was “increase in mental clarity”. For the same compound, the “tiredness and napping of second patient (P2)” value [2, 13] was “still been very tired and napping through the day”, the “health status of Patient 1” value ([2]; flumazenil infusion at 2 mg/day by implant, within 7 days) was “full return to normal health” and the release of dopamine [3] was “enhance the release of dopamine”. The Tapping score ([4]; 0 hours from infusion (baseline)) was 40 taps per minute, the Tapping score ([4]; 2 hours from infusion) was 50 taps per minute and the Tapping score ([4]; 3 hours from infusion) was 60 taps per minute. The Tapping score ([4]; 4 hours from infusion) was 73 taps per minute, the “L-dopa medication dosage after commencing infusion treatment” value ([4]; reduced from 1500 mg/day within days of commencing infusion, with valium) was 250 mg/day and the “calmness and the ability to relate to others” value ([5]; 20 to 300 microgram per hour, subcutaneous and intravenous infusions, within 3 days (5 days at the lower end)) was “significant improvement”. For the same compound, the “extent of changes in those with depression, anxiety and fear” value ([5]; at the 20 mg/hour end of the scale) was “less”, the “extent of changes in those with depression, anxiety and fear” value ([5]; beyond 40 mg/hour) was “very marked” and the “confidence in those with depression, anxiety and fear” value ([5]; during the infusion treatment) was “showed a confidence in themselves”. For the same compound, the “depression and anxiety symptoms in patients previously diagnosed with psychosis” value ([5]; more than 20 of the 500) was “lifted in their depression and in their anxiety symptoms”, the “alertness during infusion treatment” value ([5]; most of the 500) was “an increase in problem solving and reported a decrease in distractibility” and the sleep ([5]; nearly all of the 500, one patient reported difficulty getting to sleep) was “return to natural sleep”. For the same compound, the “relief in those who had damaged their benzodiazepine receptors” value ([6]; 1-8 mg of flumazenil per day, usually within hours of commencing) was “gained relief”, the “symptoms treated by benzodiazepines” value ([6]; flumazenil infusions, within hours, maintained for up to 3 to 4 days or longer) was “marked improvement” and the “safety of long term flumazenil in humans” value ([6]; more than 500 patients, intravenous, subcutaneous and implant delivery) was “safe for use in human beings”. The “tolerance of light (light activating peti mal episodes)” value [7] was “able to go for a walk in the sun for an hour with no hat or sunglasses”, the “fits (peti mal episodes)” value ([7]; none since (48 hour), previously at least 4-5 times each day) was “no fits” and the “adverse effects of bolus doses” value [8] was “anxiety attacks or fits”. For the same compound, the solubility ([9]; pH 1.2, simulated gastric fluid) was 3000 µg/mL (≈ 9.89 mM) and the solubility ([9]; pH 7.5, aqueous buffer, pH of 7.5) was 600 µg/mL (≈ 1.98 mM).
For O=C1CC[C@@]2(O)[C@H]3Cc4ccc(O)c5c4[C@@]2(CCN3CC2CC2)[C@H]1O5 [naltrexone], the “crohn's disease” value [1, 14] was “improvements” and the multiple sclerosis [1, 14] was “improvements”.
